Results: the OPERA property sets (Mansouri et al. 2018)

Structure (SMILES)	boiling point	melting point	other results
CCCCCCCCCCCCCCCCCCCCCCCCCCCCCCCC	467 °C	69.7 °C	log10 biodegradation half-life (days): 2.45; ready biodegradability: readily biodegradable
CC(C)CCC#N	156 °C	-51 °C	
C[N+](C)(C)CCOC(Cc1ccccc1)c1ccccc1.[Br-] (stereo not given)		146 °C	
CC(=O)C(C)(C)C	106 °C	-52.5 °C	log10 vapour pressure (mmHg): 1.5
CO[C@H]1C=C[C@H](OC)O1	161 °C		
O=[N+]([O-])OC(CO)CO	158 °C	54 °C	
COc1ccc(C(=O)c2ccccc2C(=O)O)cc1		146 °C	
CCCCCCCCC(CCCCCCCC)C(=O)O		38.5 °C	
COC(=O)C(C)C(C)=O (stereo not given)	177 °C		
CCCCCCCCN(C)CCCCCCCC		-30.1 °C	
O=C(Oc1ccccc1)n1c(C(F)(F)F)nc2cc(Cl)c(Cl)cc21		103 °C	
Clc1cc(Cl)nc(Cl)n1	212 °C	22.5 °C	
CC(O)Cn1cnc2c1c(=O)n(C)c(=O)n2C (stereo not given)		136 °C	
ClCc1ccc(Br)cc1	236 °C	50 °C	
O=c1[nH]cccc1O			ready biodegradability: not readily biodegradable
Cc1n[nH]c(=O)[nH]c1=O		211 °C	
CCC=C(C)CCC	121 °C		

Structure (SMILES)	boiling point	melting point	other results
CN(C)CCCN1c2ccccc2Sc2ccc(Cl)cc21.Cl		195 °C	
CC1CCCC(C)C1O (stereo not given)	176 °C	32.5 °C	
O=C1OC(=O)C2CCCCC12 (stereo not given)			ready biodegradability: not readily biodegradable
CC(C)(c1ccccc1)C(C)(C)c1ccccc1			log10 biotransformation half-life (days) (fish): 0.87
CCC[C@](C)(O)CC	143 °C		log10 vapour pressure (mmHg): 0.291
CCCCOC(=O)c1ccc([N+](=O)[O-])cc1		35.5 °C	
CCOc1cccc(C=O)c1	246 °C		
Cc1nn(C)c(OCC(=O)c2ccccc2)c1C(=O)c1ccc(Cl)cc1Cl		112 °C	log10 vapour pressure (mmHg): -6.44
COCC(=O)OC	131 °C		
COc1c(Cl)c(Cl)cc(Cl)c1Cl		88.5 °C	log10 BCF (fish): 3.69
CN1C[C@@H]2C[C@H](C1)c1cccc(=O)n1C2		137 °C	
CC1(c2ccccc2)CCOCO1 (stereo not given)	256 °C	37.5 °C	
CCCCCCN1CC(C(=O)O)CC1=O (stereo not given)		42.5 °C	
CCCC=C(C=O)CC	195 °C		log10 vapour pressure (mmHg): 0.107; ready biodegradability: readily biodegradable
OCCOc1ccc(Cl)cc1Cl			log10 vapour pressure (mmHg): -3.7
O=C(Nc1cccc2ccccc12)Nc1cccc2ccccc12		296 °C	
O=C(OCC(O)CO)c1ccccc1Nc1ccnc2c(C(F)(F)F)cccc12 (stereo not given)		180 °C	
